system: Primary human T cells; assay: Cytokine production and degranulation of CDK4 TCR T cells with Zap70-Siglec11-degron CRASH-IT switch co-cultured with NKIRTIL006 melanoma cells, lenalidomide; assay type: cell-based; settings: 5 nM lenalidomide; as compared to double hybrid degron containing CRASH-IT switch
From the text: FIG. 5: SynFingers fusion proteins enable sensitive control of immune cell functions. A subset of SynFingers identified in the SynFinger library screen were individually validated. (A-H) Primary human T cells were modified with the HLA class I restricted CDK4 TCR plus a Zap70-Siglec11-degron CRASH-IT switch, in which the degron sequence contains the parental zinc finger degron (double hybrid degron depicted in FIGS. 1 and 3), or the parental zinc finger degron with the following mutations: G14N/K21A, G14M/N15R, L17I/K21L, E4R/Q12L, Q12R/K13T, or Q12R/K13V. As a control, primary human T cells modified with the HLA class I restricted CDK4 TCR plus vector control were used. Cells were pretreated with 5 nM lenalidomide or left untreated. Data depict intracellular IFNγ, IL2, TNFα, and cell surface LAMP1 expression of CDK4 TCR+, EGFP intermediate, CD8+ T cells upon co-culture with NKIRTIL006 melanoma cells in the continued absence (E-H) or continued presence of 5 nM lenalidomide (A-D). Dashed horizontal lines indicate cytokine production and degranulation levels of cells modified with a CRASH-IT switch containing the parental zinc finger degron. Error bars represent standard deviation (n=2). SynFinger and vector control groups were compared to the parental zinc finger group using a one-sided t test: *=p<0.05, **=p<0.01, ***=p<0.001, ****=p<0.0001, n.s.=not significant. Data are representative of two independent experiments.
FIG. 6: SynFinger containing CRASH-IT switches enable restoration of cytokine production and degranulation at lower IMID concentrations as compared to zinc finger degrons not according to the invention. (A-D) Primary human T cells modified with the HLA class I restricted CDK4 TCR plus a Zap70-Siglec11-degron CRASH-IT switch, in which the degron sequence contains prior art zinc finger degrons (single hybrid, dual zinc finger degron depicted in FIG. 1), the parental zinc finger degron (double hybrid degron depicted in FIGS. 1 and 3), or the parental zinc finger degron with the following mutations: G14N/K21A, L17I/K21L, or Q12R/K13V, were pretreated with the indicated concentrations of lenalidomide or left untreated. Data depict intracellular IFNγ, IL2, TNFα, and cell surface LAMP1 expression of CDK4 TCR+, EGFP intermediate, CD8+ T cells upon co-culture with NKIRTIL006 melanoma cells in the continued presence or absence of the indicated concentration of lenalidomide (A-D). Error bars represent standard deviation (n=3). Data are representative of two independent experiments. (E) Table depicts EC50Lenalidomide (nM) values of cells in (A-D), and EC50 fold change between the prior art zinc finger degron and a SynFinger containing the Q12R/K13V substitutions.
FIG. 7: Combination of dual substitution sets can further increase lenalidomide sensitivity of SynFinger degron. (A-D) Primary human T cells modified with the HLA class I restricted CDK4 TCR plus a Zap70-Siglec11-degron CRASH-IT switch, in which the degron sequence contains the parental zinc finger degron (double hybrid degron depicted in FIGS. 1 and 3), or the parental zinc finger degron with the following mutations: G14N/K21A, Q12R/K13V, or Q12R/K13V/G14N/K21A, were pretreated with the indicated concentrations of lenalidomide or left untreated. Data depict intracellular IFNγ, IL2, TNFα, and cell surface LAMP1 expression of CDK4 TCR+, EGFP intermediate, CD8+ T cells upon co-culture with NKIRTIL006 melanoma cells in the continued presence or absence of the indicated concentration of lenalidomide (A-D). Error bars represent standard deviation (n=3). Data are representative of two independent experiments.
To test whether the SynFingers that show an improved drug sensitivity in this Jurkat SynFinger library screen also led to an improved sensitivity to low IMID concentrations when expressed in primary human T cells, human peripheral blood T cells were modified to express the CDK4 TCR and indicated SynFinger containing CRASH-IT switch variants (FIG. 5). […]

Substance | cytokine production at very low lenalidomide concentration
LQCEICGFTCRQKGNLIRHILLH [SEQ ID NO: 14] | improved cytokine production
LQCEICGFTCRQKNNLLRHIALH [SEQ ID NO: 6] | improved cytokine production
LQCEICGFTCRRTGNLLRHIKLH [SEQ ID NO: 2] | improved cytokine production
LQCEICGFTCRQKMRLLRHIKLH [SEQ ID NO: 4] | improved cytokine production
LQCRICGFTCRLKGNLLRHIKLH [SEQ ID NO: 1] | improved cytokine production
LQCEICGFTCRRVGNLLRHIKLH [SEQ ID NO: 9] | improved cytokine production

same assay, conditions: as compared to SynFinger degrons with Q12R/K13V or G14N/K21A

Substance | sensitivity of the SynFinger towards lenalidomide
LQCEICGFTCRRVNNLLRHIALH [Q12R/K13V/G14N/K21A, SynFinger degron with quadruple substitutions] | improved the sensitivity

system: Jurkat cells; assay: SynFinger library screen: CD69 expression of CRASH-IT (Zap70-PD1-degron) transduced Jurkat cells with or without lenalidomide, enrichment index from NGS reads; assay type: cell-based; design: key to EI / EI index (enrichment index): enrichment index; low EI = SynFinger with desired properties; settings: Jurkat SynFinger screen
From the text: […] Jurkat cells were transduced with the SynFinger library (SynFinger containing CRASH-IT switches) at a 12.8% transduction efficiency and sorted for high EGFP expression to enrich transduced cells. For quality control of the SynFinger transduced Jurkat cells, SynFinger sequences were amplified and analyzed by NGS. 10 randomly selected SynFinger encoding DNA sequences or DNA sequences encoding the same SynFinger amino acid sequences but contain 2 nucleotide mismatches due to alternative codon usage were used to assess ability to distinguish true SynFinger sequences from noise in the NGS data. 10/10 SynFinger encoding full-nucleotide sequence match sequences were observed within NGS data whereas the 2 nucleotide mismatch containing sequences were not detected.
Jurkat cells expressing the SynFinger library were treated with 50 nM lenalidomide (a suboptimal dose that activates only ˜50% of cells expressing a CRASH-IT switch containing the parental double hybrid degron in Jurkat cells, as compared to a maximally effective 1000 nM lenalidomide dose) or were mock treated for 24 hours, and subsequently activated with anti-CD3/anti-CD28 antibodies in the presence or absence of 50 nM lenalidomide for 5 hours. Afterwards, cells were stained with IR dye (1:400) and anti-CD69-PE (1:200). Cells were sorted for live (IR dye negative), EGFP high end CD69 high (top 5%) or CD69 low (bottom 5%) expression using Aria Fusion cytometers.
Subsequently, cells were washed with PBS, and cell pellets were frozen at −20° C. until DNA extraction. Genomic DNA was isolated using the DNeasy Blood & Tissue Kit (Qiagen) according to the manufacturer's instructions, using 5×10^6 cells per column. DNA was eluted in 22 μl RNAse free water. Deep sequencing adapters and indexes were added to SynFinger encoding DNA sequences using PCR amplification. Briefly, 3 μg genomic DNA (20 μl), indexed forward and reverse primers (10 μM, 2.5 μl each) and 25 μl NEBNext® High-Fidelity 2×PCR Master Mix were added to the PCR reaction. An optimized PCR reaction (98° C. for 30 s, (98° C. for 10 s, 56° C. for 10 s, 72° C. for 5 s)×25 cycles, 72° C. for 3 min was performed using Eppendorf PCR cyclers.
Indexed PCR products were run on agarose gel, relative DNA concentrations were estimated by measuring band intensity, and 12 indexed PCR reaction products were mixed per MiSeq chip. To increase sequence diversity, samples were mixed with 25% PhiX DNA. In total, 2 MiSeq chips were used (100 bp, single read). To distinguish genuine SynFinger sequences from sequencing errors, results were filtered using a reference list of actual sequences used in SynFinger library design (100% codon match). Sequences with a very low number of reads (sum of all samples below 500 reads) were excluded from analysis.
To identify SynFingers that improve sensitivity of CRASH-IT switches towards lenalidomide while preserving or improving stringency of switch mediated control of T cell activation in the absence of lenalidomide, an enrichment index (EI) value was calculated for each sequence as described below, and SynFingers were ranked according to their EI, with a low EI indicating a SynFinger with desired properties.
CD69-HI and […] read counts from top 100 SynFingers were compared with read counts from the parental double hybrid degron using a two-sided Fisher's exact test to determine enrichment of CD69-HI cells in the presence of lenalidomide and enrichment of CD69-LO cells in the absence of lenalidomide.
To further improve the sensitivity of double hybrid degron towards IMiDs, we performed a high throughput screen using a library of ˜50,200 CRASH-IT variants that encode either single or double amino acid substitutions at the indicated positions of the first hybrid zinc finger sequence, thereby changing 18 amino acids of this zinc finger into any amino acid except cysteine (FIG. 3). […]

Substance | EI
LQCEICGFTCRRVGNLLRHIKLH [SEQ ID NO: 9] | 0.006877

same assay, conditions: Table 6; dual substitutions in first hybrid zinc finger domain; Jurkat, 50 nM lenalidomide vs mock, CD69-HI/CD69-LO; low EI = desired

Substance | EI index (enrichment index)
38 (LQCEICGYTCRKKGNLLRHIKLH) [compound 38] | 0.01794
29 (LQCEICGFTCRQVGWLLRHIKLH) [compound 29] | 0.01609
7 (LQCEICGFTCRQKNNLLRHIKRH) [compound 7] | 0.004969
71 (LQCEICGFTCRKKNNLLRHIKLH) [compound 71] | 0.03227
11 (LQCPICGFTCRQKSNLLRHIKLH) [compound 11] | 0.008068
55 (LQCEICGFTCRQKFKLLRHIKLH) [compound 55] | 0.0247
92 (LQCEICGFTCRQLRNLLRHIKLH) [compound 92] | 0.04129
95 (LQCLICGFTCRQKGNLLRHIRLH) [compound 95] | 0.04285
23 (LQCEICGFTCRKKGALLRHIKLH) [compound 23] | 0.0133
65 (LQCEICGFTCRQKGNLLRHIFKH) [compound 65] | 0.02989
56 (LQCKICGFTCRHKGNLLRHIKLH) [compound 56] | 0.02543
81 (LQCEICGFTCRQDGRLLRHIKLH) [compound 81] | 0.03726
12 (IQCEACGFTCRQKGNLLRHIKLH) [compound 12] | 0.008564
17 (LQCIICGFTCRQKGNLLKHIKLH) [compound 17] | 0.0108
46 (LQCEICGFTCRQKGNLYRHYKLH) [compound 46] | 0.021
54 (LQCEICGFTCRQKGNLLVHIALH) [compound 54] | 0.02408
72 (YQCEICGFTCRQKGNLLRHIILH) [compound 72] | 0.03275
39 (LQCEICGFTCRQKGRLLRHIKQH) [compound 39] | 0.01901
82 (LQCMICGFTCRQKGNLMRHIKLH) [compound 82] | 0.03754
13 (LQCEICGFTCRQKGNMLRHIRLH) [compound 13] | 0.008761
36 (YQCVICGFTCRQKGNLLRHIKLH) [compound 36] | 0.01769
78 (LQCNICGFTCRQLGNLLRHIKLH) [compound 78] | 0.03544
83 (LQCWICGFTCRQKGNMLRHIKLH) [compound 83] | 0.03839
18 (LQCAICGFTSRQKGNLLRHIKLH) [compound 18] | 0.01133
67 (LQCEICGFTCRQQLNLLRHIKLH) [compound 67] | 0.0303

same assay, conditions: single mutation vs dual substitution L1Y/E4V; higher EI = less sensitive to IMiD

Substance | EI value, times higher as compared to SEQ ID. NO 36
YQCEICGFTCRQKGNLLRHIKLH [SEQ ID NO: 108, first hybrid zinc finger domain with only one mutation, substitution L1Y] | 10-15 times

same assay, conditions: single mutation vs dual substitution; higher EI = less sensitive to IMiD

Substance | EI value, times higher as compared to SEQ ID. NO 100
YQCEICGFTCRQKGNLLRHIKLH [SEQ ID NO: 108, first hybrid zinc finger domain with only one mutation, substitution L1Y] | at least 5 times

From patent US20250206789A1, “ZINC FINGER DEGRON SEQUENCES” (STICHTING HET NEDERLANDS KANKER INSTITUUT-ANTONI VAN …, priority 2022, published 2025)
